# Assay results from article PMC6273037, “Synthesis, Structure and Cytotoxic Activity of Mono- and Dialkoxy Derivatives of 5,8-Quinolinedione” (Molecules, 2016).
# Where two headings read alike, the source gives them in different places.
# Experiments:
# C-32 (human melanoma) = test: WST-1 antiproliferative assay, melanoma C-32; format: cell-based; settings: WST-1 test, incubation time 72 h, read-out: Human Cell Line/IC50 ± SD C-32
# Description: (§1) As a reference, the cytotoxic agent cisplatin was applied.
# (§2) The synthesized compounds were tested against tumor cells SNB-19 (human glioblastoma, DSMZ-German Collection of Microorganisms and Cell Cultures, Braunschweig, Germany), MDA-MB-231 (human adenocarcinoma, breast cancer; ATCC), C-32 (human melanoma; ATCC) and nontumor cells HFF-1 (normal human fibroblasts derived from foreskin, ATCC). The cultured cells were kept at 37 °C and in 5% CO2. The cells were seeded (10^3 cells/well/[…] DMEM supplemented with FBS (Fetal Bovine Serum, Lonza) to a final concentration of 10% and streptomycin 10 mg/mL and penicillin 1000 IU/mL (Sigma), using 96-well plates (Corning).
# (§3) The antiproliferative effect of the synthesized compounds was determined using the Cell Proliferation Reagent WST-1 assay (Roche Diagnostics, Mannheim, Germany). […] After an exposure to the tested compounds at concentration varying in the range 0.4–400 nM/mL, the cell viability was quantified by a cell proliferation assay. […] The cytotoxic activity of the tested compound was compared to the cisplatin (positive control). The experiments were repeated in triplicate for each concentration of the tested compound. The initial concentration of the tested compounds was 1 mg/mL DMSO. […] Calculations of the IC50 values were performed using the GraphPad Prism 6 (GraphPad Software, San Diego, CA, USA).
# [1] = test system: SNB-19 (human glioblastoma); test: WST-1 antiproliferative assay, glioblastoma SNB-19; format: cell-based; settings: WST-1 test, incubation time 72 h, read-out: Human Cell Line/IC50 ± SD SNB-19
# Description: as §1, §2, §3
# [2] = test system: MDA-MB-231 (human adenocarcinoma, breast cancer); test: WST-1 antiproliferative assay, breast cancer MDA-MB-231; format: cell-based; settings: for IC50: WST-1 test, incubation time 72 h, read-out: Human Cell Line/IC50 ± SD MDA-MB-231; for selectivity index (SI): breast cancer (MDA-MB-231) cell line
# Description: as §1, §2, §3
# [3] = test system: HFF-1 (normal human fibroblasts); test: WST-1 antiproliferative assay, normal fibroblasts HFF-1; format: cell-based; settings: WST-1 test, incubation time 72 h, Neg = Negative in the concentration used; for IC50: read-out: Human Cell Line/IC50 ± SD HFF-1
# Description: as §1, §2, §3
IC50 (C-32 (human melanoma); Homo sapiens),"IC50 ([1]; Homo sapiens, SNB-19)","IC50 ([2]; Homo sapiens, MDA-MB-231)",melting point,Compound,IC50 (C-32 (human melanoma)),IC50 [1],IC50 [2],IC50 [3],selectivity index (SI) [2],"IC50 ([3]; Homo sapiens, HFF-1)",Human Cell Line/IC50 ± SD HFF-1 [3]
,,,,"6-Chloro-7-(1-methylbenzyloxy)-5,8-quinolinedione [Compound 9]",0.81 ± 0.01 µM,2.3 ± 0.5 µM,271 ± 9.8 µM,2 ± 0.3 µM,,,
19.2 ± 2.1 µM,42.2 ± 0.1 µM,1.5 ± 0.2 µM,161 to 163 °C,"COC1=C(Cl)C(=O)c2cccnc2C1=O [Compound 2, 6-Chloro-7-methoxy-5,8-quinolinedione]",,,,,18.4,27.6 ± 2.1 µM,
30.7 ± 1.1 µM,10.3 ± 2.4 µM,24 ± 2.8 µM,112 to 114 °C,"CCOC1=C(Cl)C(=O)c2cccnc2C1=O [Compound 3, 6-Chloro-7-ethoxy-5,8-quinolinedione]",,,,,,1.3 ± 0.5 µM,
0.2 ± 0.01 µM,0.36 ± 0.03 µM,22.4 ± 2.7 µM,121 to 122 °C,"CCCOC1=C(Cl)C(=O)c2cccnc2C1=O [Compound 4, 6-Chloro-7-propoxy-5,8-quinolinedione]",,,,,,,Neg
0.28 ± 0.09 µM,0.3 ± 0.01 µM,17.2 ± 2.8 µM,89 to 90 °C,"C=CCOC1=C(Cl)C(=O)c2cccnc2C1=O [Compound 5, 6-Chloro-7-(2-propenoxy)-5,8-quinolinedione]",,,,,,,Neg
22.8 ± 2.5 µM,18.3 ± 1.4 µM,17 ± 3 µM,114 to 116 °C,"O=C1C(Cl)=C(OCCCl)C(=O)c2ncccc21 [Compound 6, 6-Chloro-7-(2-chloroethoxy)-5,8-quinolinedione]",,,,,,15.8 ± 1.2 µM,
119 ± 4.3 µM,58.3 ± 2.8 µM,164 ± 3.9 µM,177 to 179 °C,"N#CCCOC1=C(Cl)C(=O)c2cccnc2C1=O [Compound 7, 6-Chloro-7-(2-cyanoethoxy)-5,8-quinolinedione]",,,,,,2.5 ± 0.4 µM,
1.4 ± 0.1 µM,1.8 ± 0.1 µM,3.5 ± 0.3 µM,123 to 124 °C,"O=C1C(Cl)=C(OC2CCCCC2)C(=O)c2ncccc21 [Compound 8, 6-Chloro-7-cyclohexyloxy-5,8-quinolinedione]",,,,,,13.9 ± 3 µM,
,,,132 to 133 °C,"COC1=C(OC)C(=O)c2ncccc2C1=O [Compound 10, 6,7-Dimethoxy-5,8-quinolinedione]",,,,,,,
17.6 ± 1.6 µM,2.1 ± 0.1 µM,18.6 ± 2 µM,69 to 70 °C,"CCOC1=C(OCC)C(=O)c2ncccc2C1=O [Compound 11, 6,7-Diethoxy-5,8-quinolinedione]",,,,,,,Neg
1.1 ± 0.1 µM,0.7 ± 0.02 µM,3 ± 0.3 µM,133 to 135 °C,"CCCOC1=C(OCCC)C(=O)c2ncccc2C1=O [Compound 12, 6,7-Dipropoxy-5,8-quinolinedione]",,,,,,,Neg
1.5 ± 0.01 µM,0.2 ± 0.01 µM,12.6 ± 2.7 µM,135 to 136 °C,"C=CCOC1=C(OCC=C)C(=O)c2ncccc2C1=O [Compound 13, 6,7-di(2-Propenyloxy)-5,8-quinolinedione]",,,,,,,Neg
12.1 ± 0.2 µM,3.5 ± 0.3 µM,10.9 ± 1.4 µM,189 to 191 °C,"O=C1C(OCCCl)=C(OCCCl)C(=O)c2ncccc21 [Compound 14, 6,7-di(2-Chloroethoxy)-5,8-quinolinedione]",,,,,,1.9 ± 0.2 µM,
10.9 ± 1.3 µM,14.9 ± 0.7 µM,2.7 ± 0.1 µM,110 to 111 °C,"O=C1C(OCC(F)(F)F)=C(OCC(F)(F)F)C(=O)c2ncccc21 [Compound 15, 6,7-di(2,2,2-Trifluoroethoxy)-5,8-quinolinedione]",,,,,4.6,12.4 ± 1.2 µM,
134 ± 10.7 µM,204 ± 14.3 µM,111 ± 3.7 µM,45 to 47 °C,"N#CCCOC1=C(OCCC#N)C(=O)c2ncccc2C1=O [Compound 16, 6,7-di(2-Cyanoethoxy)-5,8-quinolinedione]",,,,,,18.2 ± 2.6 µM,
1.4 ± 0.1 µM,1.7 ± 0.3 µM,13.8 ± 0.1 µM,,"O=C1C(OC2CCCCC2)=C(OC2CCCCC2)C(=O)c2ncccc21 [Compound 17, 6,7-Dicyclohexloxy-5,8-quinolinedione]",,,,,,,Neg
,,,,"N.N.[Cl][Pt][Cl] [cisplatin, reference compound]",16.4 ± 1.2 µM,18.9 ± 0.4 µM,25.5 ± 0.2 µM,9.1 ± 1.8 µM,,,
